# Molecular target: T1, IKBKB (IKKβ) (Homo sapiens, UniProt O14920)
# T1 construct: purchased Life Technologies (assay performed by the vendor)
# T1 sequence (O14920 1-756): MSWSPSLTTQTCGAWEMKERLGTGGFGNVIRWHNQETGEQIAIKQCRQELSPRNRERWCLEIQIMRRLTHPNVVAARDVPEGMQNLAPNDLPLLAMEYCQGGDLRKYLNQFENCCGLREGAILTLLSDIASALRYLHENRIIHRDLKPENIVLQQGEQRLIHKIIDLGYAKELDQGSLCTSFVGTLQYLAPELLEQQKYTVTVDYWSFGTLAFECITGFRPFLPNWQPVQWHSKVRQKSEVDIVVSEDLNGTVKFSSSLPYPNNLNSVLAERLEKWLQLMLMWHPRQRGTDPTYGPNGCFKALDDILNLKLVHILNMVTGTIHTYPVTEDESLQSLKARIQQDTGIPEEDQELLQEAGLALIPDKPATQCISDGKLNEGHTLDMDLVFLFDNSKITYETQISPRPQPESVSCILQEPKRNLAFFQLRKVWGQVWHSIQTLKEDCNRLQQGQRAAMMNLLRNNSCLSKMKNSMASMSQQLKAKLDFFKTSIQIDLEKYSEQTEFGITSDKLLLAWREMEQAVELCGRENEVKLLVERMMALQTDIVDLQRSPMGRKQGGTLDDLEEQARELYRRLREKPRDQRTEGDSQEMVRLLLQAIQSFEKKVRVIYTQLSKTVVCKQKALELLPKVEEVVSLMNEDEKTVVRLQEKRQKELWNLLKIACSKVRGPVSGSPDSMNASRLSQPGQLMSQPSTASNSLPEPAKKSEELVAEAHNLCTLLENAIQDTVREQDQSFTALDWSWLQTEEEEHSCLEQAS
# Assay: Z'-LYTE IKKβ assay (Life Technologies)
# Assay type: biochemical
# Procedure: IKKα and IKKβ inhibitory activity was determined using three different assays: a dissociation enhanced ligand fluorescent immunoassay (DELFIA) based on the protocol of HTScan™ IKKβ Kinase Assay (Cell Signaling Technology, USA); an Adapta IKKα assay (performed by Life Technologies); a Z′-LYTE™ IKKβ assay (performed by Life Technologies).
# The reaction was performed in low volume NBS, black 384-well plates (Corning model 4514).
# The test compounds were screened in 1% DMSO (final) in the well. For 10 point titrations, 3-fold serial dilutions were conducted from the starting concentration of 50 mM.
# The 2× IKBKB (IKKβ)/Ser/Thr 05 mixture was prepared in 50 mM HEPES pH 7.5, 0.01% BRIJ-35, 10 mM MgCl2, 1 mM EGTA. The final 10 μL Kinase Reaction consisted of 0.62-4 ng IKBKB (IKKβ) and 2 μM Ser/Thr 05 in 50 mM HEPES pH 7.5, 0.01% BRIJ-35, 10 mM MgCl2, 1 mM EGTA.
# 5 μL of 2× Kinase reaction was incubated with 2.5 μL of ATP solution diluted to a 4× working concentration in Kinase Buffer (50 mM HEPES pH 7.5, 0.01% BRIJ-35, 10 mM MgCl2, 1 mM EGTA) in the presence of […] of 100× test compound in 100% DMSO and 2.4 μL of Kinase buffer.
# The resulting kinase reaction was allowed to incubate for 1 hour at room temperature before 5 μL of a 1:64 dilution of Development Reagent B was added and the resulting Development Reaction was incubated for another hour at room temperature. Then the plate was read on a fluorescence plate reader and the data analysed.
# A ratiometric method, which calculated the Emission Ratio of donor emission (i.e. coumarin) to acceptor emission (i.e. fluorescein) after excitation of the donor fluorophore at 400 nm, was used to quantitate reaction progress, as shown in the equation below.
row,IC50 [nM],Compound
1,225,"Nc1n[nH]c2ccc(-c3ccnc4[nH]c(C5CCCCO5)cc34)cc12 (stereo not drawn) [Example 229, 5-(2-(Tetrahydro-2H-pyran-2-yl)-1H-pyrrolo[2,3-b]pyridin-4-yl)-1H-indazol-3-amine]"
2,60,"Nc1n[nH]c2ccc(-c3ccnc4[nH]c(CC5CCOCC5)cc34)cc12 [Example 230, 5-(2-((tetrahydro-2H-pyran-4-yl)methyl)-1H-pyrrolo[2,3-b]pyridin-4-yl)-1H-indazol-3-amine]"
3,790,"Nc1n[nH]c2ccc(-c3ccnc4[nH]c(C(=O)N5CCCC5)cc34)cc12 [Example 234, (4-(3-Amino-1H-indazol-5-yl)-1H-pyrrolo[2,3-b]pyridin-2-yl)(pyrrolidin-1-yl)methanone]"
4,20,"Nc1n[nH]c2ccc(-c3ccnc4[nH]c(C(=O)NC5CCCCC5)cc34)cc12 [Example 236, 4-(3-Amino-1H-indazol-5-yl)-N-cyclohexyl-1H-pyrrolo[2,3-b]pyridine-2-carboxamide]"
5,630,"CN1CCN(C(=O)c2cc3c(-c4ccc5[nH]nc(N)c5c4)ccnc3[nH]2)CC1 [Example 243, (4-(3-Amino-1H-indazol-5-yl)-1H-pyrrolo[2,3-b]pyridin-2-yl)(4-methylpiperazin-1-yl)methanone]"
6,1430,"CC(C)(C)NCc1cc2c(-c3ccc4[nH]nc(N)c4c3)ccnc2[nH]1 [Example 248, 5-(2-((tert-Butylamino)methyl)-1H-pyrrolo[2,3-b]pyridine-4-yl)-1H-indazol-3-amine]"
7,810,"Nc1n[nH]c2ccc(-c3ccnc4[nH]c(C5CCCCN5)cc34)cc12 (stereo not drawn) [Example 250, 5-(2-(Piperidin-2-yl)-1H-pyrrolo[2,3-b]pyridine-4-yl)-1H-indazol-3-amine]"
8,405,"Nc1n[nH]c2ccc(-c3ccnc4[nH]c(CNC5CCCCC5)cc34)cc12 [Example 251, 5-(2-((cyclohexylamino)methyl)-1H-pyrrolo[2,3-b]339yridine-4-yl)-1H-indazol-3-amine]"
9,245,"CN(C)CCCNCc1cc2c(-c3ccc4[nH]nc(N)c4c3)ccnc2[nH]1 [Example 258, N^1-((4-(3-amino-1H-indazol-5-yl)-1H-pyrrolo[2,3-b]pyridin-2-yl)methyl)-N^3,N^3-dimethylpropane-1,3-diamine]"
10,790,"CC(C)N(C)Cc1cc2c(-c3ccc4[nH]nc(N)c4c3)ccnc2[nH]1 [Example 259, 5-(2-((Isopropyl(methyl)amino)methyl)-1H-pyrrolo[2,3-b]pyridine-4-yl)-1H-indazol-3-amine]"
11,454,"Nc1n[nH]c2ccc(-c3ccnc4[nH]c(CN5CCCCC5)cc34)cc12 [Example 260, 5-(2-(Piperidin-1-ylmethyl)-1H-pyrrolo[2,3-b]pyridine-4-yl)-1H-indazol-3-amine]"
12,286,"Nc1n[nH]c2ccc(-c3ccnc4[nH]c(CN5CCC(F)(F)CC5)cc34)cc12 [Example 261, 5-(2-((4,4-Difluoropiperidin-1-yl)methyl)-1H-pyrrolo[2,3-b]pyridine-4-yl)-1H-indazol-3-amine]"
13,269,"Nc1n[nH]c2ccc(-c3ccnc4[nH]c(CN5CCOCC5)cc34)cc12 [Example 262, 5-(2-(Morpholinomethyl)-1H-pyrrolo[2,3-b]pyridine-4-yl)-1H-indazol-3-amine]"
14,300,"CN1CCN(Cc2cc3c(-c4ccc5[nH]nc(N)c5c4)ccnc3[nH]2)CC1 [Example 263, 5-(2-((4-Methylpiperazin-1-yl)methyl)-1H-pyrrolo[2,3-b]pyridine-4-yl)-1H-indazol-3-amine]"
15,350,"Nc1n[nH]c2ccc(-c3ccnc4[nH]c(CN5CCCCCC5)cc34)cc12 [Example 265, 5-(2-(Azepan-1-ylmethyl)-1H-pyrrolo[2,3-b]pyridine-4-yl)-1H-indazol-3-amine]"
16,380,"CN1CCCN(Cc2cc3c(-c4ccc5[nH]nc(N)c5c4)ccnc3[nH]2)CC1 [Example 266, 5-(2-((4-Methyl-1,4-diazepan-1-yl)methyl)-1H-pyrrolo[2,3-b]pyridin-4-yl)-1H-indazol-3-amine]"
17,235,"Nc1n[nH]c2ccc(-c3ccnc4[nH]c(CCN5CCCCC5)cc34)cc12 [Example 267, 5-(2-(2-(Piperidin-1-yl)ethyl)-1H-pyrrolo[2,3-b]pyridine-4-yl)-1H-indazol-3-amine]"
18,138,"Nc1n[nH]c2ccc(-c3ccnc4[nH]c(CCN5CCOCC5)cc34)cc12 [Example 268, 5-(2-(2-Morpholinoethyl)-1H-pyrrolo[2,3-b]pyridin-4-yl)-1H-indazol-3-amine]"
19,46,"Nc1n[nH]c2ccc(-c3ccnc4[nH]c(CCCN5CCCCC5)cc34)cc12 [Example 269, 5-(2-(3-(Piperidin-1-yl)propyl)-1H-pyrrolo[2,3-b]pyridin-4-yl)-1H-indazol-3-amine]"
20,111,"Nc1n[nH]c2ccc(-c3ccnc4[nH]c(CCCN5CCOCC5)cc34)cc12 [Example 271, 5-(2-(3-Morpholinopropyl)-1H-pyrrolo[2,3-b]pyridin-4-yl)-1H-indazlo-3-amine]"
21,53,"Nc1n[nH]c2ccc(-c3ccnc4[nH]c(CC5CCNCC5)cc34)cc12 [Example 272, 5-(2-(Piperidin-4-ylmethyl)-1H-pyrrolo[2,3-b]pyridin-4-yl)-1H-indazol-3-amine]"
